Test results: patent publication US7612065B2, “Inhibitors of c-JUN N-terminal kinases (JNK)” (priority 2007, dated 2009)

The molecules below were run against T1, JNK3 (Homo sapiens, UniProt P53779) (assay: JNK inhibition assay: spectrophotometric coupled-enzyme assay with activated JNK3). Conditions: activated JNK3 10 nM, 10 μM ATP, 200 μM EGF receptor peptide, 30° C., competitive inhibition model.
T1 construct: One such construct encodes amino acid residues Ser40-Glu402 of JNK3α1 and is preceded by Met and Gly residues; Met-Gly (initiation methionine plus glycine added for the NcoI site); made in house; host or cells: E. coli BL21 (DE3)
T1 sequence (P53779 40-402): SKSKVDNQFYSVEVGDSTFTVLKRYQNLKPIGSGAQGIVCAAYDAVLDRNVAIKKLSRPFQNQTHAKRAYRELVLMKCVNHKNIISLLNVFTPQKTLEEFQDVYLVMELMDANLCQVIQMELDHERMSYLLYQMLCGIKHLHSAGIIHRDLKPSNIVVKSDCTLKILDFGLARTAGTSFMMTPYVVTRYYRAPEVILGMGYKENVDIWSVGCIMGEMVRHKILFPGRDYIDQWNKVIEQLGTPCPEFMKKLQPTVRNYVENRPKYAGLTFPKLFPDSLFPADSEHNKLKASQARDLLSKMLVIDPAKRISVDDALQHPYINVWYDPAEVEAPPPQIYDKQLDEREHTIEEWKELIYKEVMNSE
Format: biochemical
Excerpt: A BLAST search of the EST database using the published JNK3α1 cDNA as a query identified an EST clone (#632588) that contained the entire coding sequence for human JNK3α1. Polymerase chain reactions (PCR) using pfu polymerase (Strategene) were used to introduce restriction sites into the cDNA for cloning into the pET-15B expression vector at the NcoI and BamHI sites. The protein was expressed in E. coli. […] This truncation corresponds to Ser 2 of JNK1 and JNK2 proteins, and is preceded by a methionine (initiation) and a glycine residue. The glycine residue was added in order to introduce an NcoI site for cloning into the expression vector. In addition, systematic C-terminal truncations were performed by PCR to identify a construct that give rise to diffraction-quality crystals.
5 mg of JNK3 was diluted to 0.5 mg/ml in 50 mM HEPES buffer, pH 7.5, containing 100 mM NaCl, 5 mM DTT, 20 mM MgCl2 and 1 mM ATP. GST-MKK7(DD) was added at a molar ratio of 1:2.5 GST-MKK7:JNK3. After incubation for 30 minutes at 25° C., the reaction mixture was concentrated 5-fold by ultrafiltration in a Centriprep-30 (Amicon, Beverly, Mass.), diluted to 10 ml and an additional 1 mM ATP added. This procedure was repeated three times to remove ADP and replenish ATP. The final addition of ATP was 5 mM and the mixture incubated overnight at 4° C.
The activated JNK3/GST-MKK7(DD) reaction mixture was exchanged into 50 mM HEPES buffer, pH 7.5, containing 5 mM DTT and 5% glycerol (w/v) by dialysis or ultrafiltration. The reaction mixture was adjusted to 1.1 M potassium phosphate, pH 7.5, and purified by hydrophobic interaction chromatography (at 25° C.) using a Rainin Hydropore column. […] Activated JNK3 (i.e. doubly phosphorylated JNK3) was stored at −70° C. at 0.25-1 mg/ml.
Compounds were assayed for the inhibition of JNK3 by a spectrophotometric coupled-enzyme assay. In this assay, a fixed concentration of activated JNK3 (10 nM) was incubated with various concentrations of a potential inhibitor dissolved in DMSO for 10 minutes at 30° C. in a buffer containing 0.1 M HEPES buffer, pH 7.5, containing 10 mM MgCl2, 2.5 mM phosphoenolpyruvate, 200 μM NADH, 150 μg/mL pyruvate kinase, 50 μg/mL lactate dehydrogenase, and 200 μM EGF receptor peptide. […] The reaction was initiated by the addition of 10 μM ATP and the assay plate is inserted into the spectrophotometer's assay plate compartment that was maintained at 30° C. The decrease of absorbance at 340 nm was monitored as a function of time. The rate data as a function of inhibitor concentration was fitted to competitive inhibition kinetic model to determine the Ki.

| Ki | Compound |
| --- | --- |
| ≥ 1 µM | COc1cc(CN2C(=O)/C(=N\O)c3cc(C)cc(C)c32)cc(OC)c1 [Compound 94] |
| ≥ 1 µM | Cc1cc(C)c2c(c1)/C(=N/O)C(=O)N2Cc1cc(F)cc2c1OCOC2 [Compound 95] |
| ≥ 1 µM | Cc1cc(C)c2c(c1)/C(=N/O)C(=O)N2Cc1csc(-c2ccc(Cl)cc2)n1 [Compound 96] |
| ≥ 1 µM | COc1ccc(CN2C(=O)/C(=N\O)c3cc(Cl)cc(C)c32)cc1 [Compound 97] |
| < 1 µM | Cc1cc(Cl)cc2c1N(Cc1cccc([N+](=O)[O-])c1)C(=O)/C2=N\O [Compound 98] |
| ≥ 1 µM | Cc1cc(Cl)cc2c1N(Cc1ccccc1C#N)C(=O)/C2=N\O [Compound 99] |
| ≥ 1 µM | Cc1cc(Cl)cc2c1N(Cc1cccc(Oc3ccccc3)c1)C(=O)/C2=N\O [Compound 100] |
| ≥ 1 µM | Cc1cc(Cl)cc2c1N(Cc1ccc(S(C)(=O)=O)cc1)C(=O)/C2=N\O [Compound 101] |
| < 1 µM | COc1cc(CN2C(=O)/C(=N\O)c3cc(Cl)cc(C)c32)cc(OC)c1 [Compound 102] |
| < 1 µM | Cc1cc(Cl)cc2c1N(Cc1cc(F)cc3c1OCOC3)C(=O)/C2=N\O [Compound 103] |
| ≥ 1 µM | Cc1cc(Cl)cc2c1N(Cc1ccccn1)C(=O)/C2=N\O [Compound 104] |
| ≥ 1 µM | COc1ccc(CN2C(=O)/C(=N\O)c3cc(OC(F)(F)F)ccc32)cc1 [Compound 105] |
| ≥ 1 µM | O=C1/C(=N\O)c2cc(OC(F)(F)F)ccc2N1Cc1cccc([N+](=O)[O-])c1 [Compound 106] |
| ≥ 1 µM | COc1cc(CN2C(=O)/C(=N\O)c3cc(OC(F)(F)F)ccc32)cc(OC)c1 [Compound 107] |
| ≥ 1 µM | O=C1/C(=N\O)c2cc(OC(F)(F)F)ccc2N1Cc1cc(F)cc2c1OCOC2 [Compound 108] |
| ≥ 1 µM | COc1ccc(-c2nc(CN3C(=O)/C(=N\O)c4cc(F)ccc43)no2)cc1 [Compound 109] |
| ≥ 1 µM | Cc1cc(C)c2c(c1)/C(=N/O)C(=O)N2Cc1ccccn1 [Compound 110] |
| ≥ 1 µM | Cc1cc(Cl)cc2c1N(Cc1nc3ccccc3[nH]1)C(=O)/C2=N\O [Compound 111] |
| ≥ 1 µM | O=C(Nc1ccc2c(c1)/C(=N/O)C(=O)N2Cc1ccccc1)c1ccccc1 [Compound 115] |
| ≥ 1 µM | COc1cccc(C(=O)Nc2ccc3c(c2)/C(=N/O)C(=O)N3Cc2ccccc2)c1 [Compound 120] |
| ≥ 1 µM | COc1cc(CN2C(=O)/C(=N\O)c3cc(NC(=O)c4cccc(OC)c4)ccc32)cc(OC)c1 [Compound 121] |
| ≥ 1 µM | COc1cccc(C(=O)Nc2ccc3c(c2)/C(=N/O)C(=O)N3Cc2cc(F)cc3c2OCOC3)c1 [Compound 122] |
| ≥ 1 µM | COc1cc(CN2C(=O)/C(=N\O)c3cc(NC(=O)CCc4ccccc4)ccc32)cc(OC)c1 [Compound 131] |

| Ki | Compound |
| --- | --- |
| ≥ 1 µM | O=C(Nc1ccc2c(c1)/C(=N/O)C(=O)N2Cc1ccccc1)c1cccc2ccccc12 [Compound 136] |
| < 1 µM | Cc1ccc2c(c1)N(Cc1cc(F)cc3c1OCOC3)C(=O)/C2=N\O [Compound 149] |
| < 1 µM | COc1cc(CN2C(=O)/C(=N\O)c3ccc(C)cc32)cc(OC)c1 [Compound 150] |
| < 1 µM | COc1cc(CN2C(=O)/C(=N\O)c3ccc(Br)cc32)cc(OC)c1 [Compound 151] |
| < 1 µM | O=C1/C(=N\O)c2ccc(Br)cc2N1Cc1cc(F)cc2c1OCOC2 [Compound 152] |
| < 1 µM | O=C1/C(=N\O)c2ccc(-c3ccccc3)cc2N1Cc1cc(F)cc2c1OCOC2 [Compound 153] |
| < 1 µM | O=C(O)c1ccc(-c2ccc3c(c2)N(Cc2cc(F)cc4c2OCOC4)C(=O)/C3=N\O)cc1 [Compound 154] |
| < 1 µM | COc1cc(CN2C(=O)/C(=N\O)c3ccc(OC)cc32)cc(OC)c1 [Compound 155] |
| < 1 µM | COc1ccc2c(c1)N(Cc1cc(F)cc3c1OCOC3)C(=O)/C2=N\O [Compound 156] |
| ≥ 1 µM | O=C1/C(=N\O)c2cc(-c3c(F)cccc3F)ccc2N1Cc1ccccc1 [Compound 157] |
| ≥ 1 µM | O=C(CN1C(=O)/C(=N\O)c2cc(Br)ccc21)OCc1ccccc1 [Compound 158] |
| ≥ 1 µM | CC(C)CN1C(=O)/C(=N\O)c2cc(Br)ccc21 [Compound 159] |
| ≥ 1 µM | C=CCCCN1C(=O)/C(=N\O)c2cc(Br)ccc21 [Compound 160] |
| ≥ 1 µM | O=C1c2ccccc2C(=O)N1CCCN1C(=O)/C(=N\O)c2ccc(-c3ccccc3)cc21 [Compound 161] |
| ≥ 1 µM | O=C1/C(=N\O)c2ccc(-c3ccccc3)cc2N1Cc1ccccc1-c1ccccc1 [Compound 162] |
| ≥ 1 µM | O=C1/C(=N\O)c2ccc(-c3ccccc3)cc2N1CC1OCCO1 [Compound 163] |
| < 1 µM | COc1cc(CN2C(=O)/C(=N\O)c3ccc(C(F)(F)F)cc32)cc(OC)c1 [Compound 164] |
| < 1 µM | O=C1/C(=N\O)c2ccc(C(F)(F)F)cc2N1Cc1cc(F)cc2c1OCOC2 [Compound 165] |
| < 1 µM | COc1cc(CN2C(=O)/C(=N\O)c3c(C)cc(C)cc32)cc(OC)c1 [Compound 166] |
| < 1 µM | Cc1cc(C)c2c(c1)N(Cc1cc(F)cc3c1OCOC3)C(=O)/C2=N\O [Compound 167] |
| ≥ 1 µM | COc1cccc(-c2ccc3c(c2)N(Cc2cc(=O)oc4cc(OC)ccc24)C(=O)/C3=N\O)c1 [Compound 175] |
| ≥ 1 µM | COC(=O)c1cccc(CN2C(=O)/C(=N/O)c3ccc(-c4cccc(OC)c4)cc32)c1 [Compound 176] |
| ≥ 1 µM | O=C1/C(=N/O)c2ccc(-c3ccsc3)cc2N1CCOc1ccccc1 [Compound 183] |

| Ki | Compound |
| --- | --- |
| ≥ 1 µM | COc1ccc2c(CN3C(=O)/C(=N/O)c4ccc(-c5ccsc5)cc43)cc(=O)oc2c1 [Compound 184] |
| ≥ 1 µM | COC(=O)c1cccc(CN2C(=O)/C(=N/O)c3ccc(-c4ccsc4)cc32)c1 [Compound 185] |
| ≥ 1 µM | COC(=O)CCCN1C(=O)/C(=N/O)c2ccc(-c3ccsc3)cc21 [Compound 186] |
| ≥ 1 µM | O=C1c2ccccc2C(=O)N1CCCN1C(=O)/C(=N/O)c2ccc(CBr)cc21 [Compound 187] |
| ≥ 1 µM | COc1ccc2c(CN3C(=O)/C(=N/O)c4ccc(CBr)cc43)cc(=O)oc2c1 [Compound 188] |
| < 1 µM | COC(=O)c1cccc(CN2C(=O)/C(=N/O)c3ccc(CBr)cc32)c1 [Compound 189] |
| ≥ 1 µM | COC(=O)CCCN1C(=O)/C(=N/O)c2ccc(CBr)cc21 [Compound 190] |
| < 1 µM | O=C1/C(=N\O)c2c(Cl)cc(Cl)cc2N1Cc1cc(F)cc2c1OCOC2 [Compound 196] |
| ≥ 1 µM | COc1cc(CN2C(=O)/C(=N\O)c3ccc([N+](=O)[O-])cc32)cc(OC)c1 [Compound 198] |
| < 1 µM | COc1cc(CN2C(=O)/C(=N\O)c3c(Br)cccc32)cc(OC)c1 [Compound 199] |
| ≥ 1 µM | COc1cc(CN2C(=O)/C(=N\O)c3c(-c4ccccc4)cccc32)cc(OC)c1 [Compound 200] |
| < 1 µM | O=C1/C(=N\O)c2c(Br)cccc2N1Cc1cc(F)cc2c1OCOC2 [Compound 201] |
| ≥ 1 µM | O=C1/C(=N\O)c2c(-c3ccccc3)cccc2N1Cc1cc(F)cc2c1OCOC2 [Compound 202] |
| ≥ 1 µM | O=C1/C(=N\O)c2c(-c3cccc(F)c3)cccc2N1Cc1cc(F)cc2c1OCOC2 [Compound 203] |
| ≥ 1 µM | O=C1/C(=N\O)c2c(-c3ccc(F)cc3)cccc2N1Cc1cc(F)cc2c1OCOC2 [Compound 204] |
| ≥ 1 µM | O=C1/C(=N\O)c2c(-c3ccsc3)cccc2N1Cc1cc(F)cc2c1OCOC2 [Compound 205] |
| ≥ 1 µM | O=C1/C(=N\O)c2c(-c3cc4ccccc4o3)cccc2N1Cc1cc(F)cc2c1OCOC2 [Compound 206] |
| < 1 µM | O=C1/C(=N\O)c2ccc([N+](=O)[O-])cc2N1Cc1cc(F)cc2c1OCOC2 [Compound 207] |
| < 1 µM | Nc1ccc2c(c1)N(Cc1cc(F)cc3c1OCOC3)C(=O)/C2=N\O [Compound 208] |
| < 1 µM | O=C1/C(=N\O)c2ccc(NO)cc2N1Cc1cc(F)cc2c1OCOC2 [Compound 209] |
| < 1 µM | CC(=O)Nc1ccc2c(c1)N(Cc1cc(F)cc3c1OCOC3)C(=O)/C2=N\O [Compound 210] |
